The record followed here is patent publication US11149066B2, “Thrombospondin 1-binding peptide” (DAIICHI SANKYO COMPANY, LIMITED, priority 2016, dated 2021).

The subject of experiment [1] is C57BL/6 mice. Description: Blood flow improvement tests (femoral artery/vein ligation and excision, laser Doppler). It is filed as in vivo. As to conditions: after 7 days of surgery; for % change (vs. vehicle): blood flow ratio ischemia/nonischemia; for %, ischemia/nonischemia: blood flow ratio of ischemic limb to non-ischemic limb, laser Doppler. The source says:
(Test Example 3) Blood Flow Improvement Tests
Seven to nine-week-old male C57BL/6 mice were purchased from Charles River Laboratories Japan Inc., and acclimated over one week by feeding with a FR-2 solid diet (produced by Funabashi Farm Co., Ltd.). The rearing facility switched between light and dark modes in a 12-hour cycle with light turning on at 7 a.m and turning off at 7 p.m. Under isofluorane inhalation anaesthesia, the left thighs of the mice were dissected, and the superficial femoral arteries and veins (from just below the deep femoral arteries to the popliteal artery and vein) were ligated and excised. After animal models were made, the test substances (Compounds 24, 28, 40 to 45, and 58) were each dissolved in a solution of 20 mM lactic acid and 5% (w/v) Lutrol, and intraperitoneally injected into mice once daily.
(Blood Flow Improvement Test 1)
Compound 24 (10 mg/kg)-treated group
(Blood Flow Improvement Test 2)
Compound 28 (10 mg/kg)-treated group
(Blood Flow Improvement Test 3)
Compound 40 (10 mg/kg)-treated group
Compound 41 (10 mg/kg)-treated group
(Blood Flow Improvement Test 4)
Compound 42 (10 mg/kg)-treated group
Compound 43 (10 mg/kg)-treated group
Compound 44 (10 mg/kg)-treated group
Compound 45 (10 mg/kg)-treated group
(Blood Flow Improvement Test 5)
Compound 58 (10 mg/kg)-treated group
Blood flows were measured in ischemic (left) and non-ischemic (right) limbs using a laser Doppler perfusion imager (LDPI; PIM III, Perimed, Inc.). Blood flow values were evaluated by the ratio of ischemic limb flow to non-ischemic limb flow.
Blood flow values from the mice were the lowest immediately after surgery and then gradually recovered. All of the test substances investigated in the animal models of this study improved blood flow recovery after surgery as compared to vehicle treatment. After 7 days of surgery, the blood flows in the test substance-treated groups were higher than in the vehicle-treated mice.

For experiment [2], the target named is human TSP1 (Homo sapiens, UniProt P07996). Description: Cell adhesion inhibition assay (HUVEC adhesion to TSP1-coated plate). It is filed as cell-based. How it is done: As referred to herein, the TSP1 inhibitory activity refers to the activity to inhibit one or more effects of TSP1, including angiostatic effect. The TSP1 inhibitory activity is measured by a cell adhesion inhibition assay using human TSP1 and vascular endothelial cells as described hereinbelow in the Examples section. In this assay, when the 50% inhibitory concentration (IC5O) of a test substance is 200 nM or less, the test substance is determined to have TSP1 inhibitory activity.
(Test Example 1) Cell Adhesion Inhibition Assay
I. Materials and Reagents
96 well Non-treated White with clear bottom (Coster, 3632)
BrightMax adhesive sealing films (EXCEL Scientific, WT50)
Proteosave®SS 15 mL (Sumitomo Bakelite, MS-52150)
Thrombospondin human platelet (Calbiochem, 605225)
EGM-2 MV (Lonza, CC-3202): for HUVEC passaging
Collagen coated dish (IWAKI, 4020-010): for HUVEC passaging
Lipidure®-BL802 (NOF Corporation), 5% solution
Albumin solution (35%) fraction V from Bovine (Sigma, A7979)
CellTiter-Glo (Promega, G7572)
Thrombospondin 1 vial (25 μg) was dissolved in TBS (+2 mM CaCl2; the same shall apply hereunder) to make a 200 μg/mL solution, which was diluted with TBS to a concentration of 10 μg/mL in Proteosave® 15 mL tube. The 10 μg/mL solution was dispensed into a 96 well plate at a volume of 50 μL/well (no reservoir was used since the protein easily adsorbs on it), and the plate was left to stand at 4° C. overnight.
Lipidure® was diluted 10-fold with TBS to make a 0.5% solution. After a buffer was discarded from the plate that had been coated at the step of <Plate coat> as described above, the 0.5% solution was dispensed into all wells to be used at a volume of 100 μL/well, and the plate was left to stand at room temperature for 1 hour.
A 0.2 μM solution of each sample was prepared using a dilution buffer (DMEM+0.5% BSA). 2 μL of the 0.2 μM solution was diluted with 500 μL, of dilution buffer to prepare a diluted sample. As a vehicle control, DMSO was diluted in the same way as the samples.
A blocking solution was discarded from the plate that had been treated at the step of <Plate blocking> as described above, and the plate was washed three times with 150 μL/well of TBS. The washing solution used for the third washing was completely sucked out by an aspirator, and the diluted sample was dispensed into the plate at a volume of 50 μL/well. Then, the plate was left to stand at room temperature for 15 to 30 minutes.
To maintain HUVECs, EGM2-MV and a collagen coated dish were used (the cells were ceased to be used after 10th or 1 lth passage since the cell proliferation rate declined at this stage). The cells were dispersed with 0.05% Trypsin/EDTA, harvested in DMEM/0.5% BSA, and centrifuged at 1000 rpm for 3 minutes. After removal of supernatant, the cells were washed once with a DMEM buffer. The cells were resuspended in a DMEM buffer, counted for cell number, and diluted to 10000 cells/50 μL. The cell suspension was dispensed at a volume of 50 μL/well into the plate into which the sample had been dispensed, mixed gently, and incubated at 37° C. for 2.5 hours.
After cell adhesion was confirmed, the culture medium was completely removed by an aspirator, and 100 μL/well of DMEM/0.5% BSA was gently dispensed. Then, DMEM/0.5% BSA was completely removed by an aspirator, and 50 μL/well of DMEM/0.5% BSA was dispensed. After a white seal was applied to the bottom of the plate, 50 μL/well of CellTiter-Glo® was dispensed, and the solution was stirred for 2 minutes and left to stand at room temperature for 8 minutes. […] was detected using EnVision Xcite Multilabel Reader (produced by Perkin Elmer).
On the basis of the measured fluorescence values, the IC50 values (nM) of the different macrocyclic polypeptides for inhibition of cell adhesion were calculated.

Setting [3] is: HUVEC adhesion to TSP1-coated plate, read-out: cell adhesion inhibition (Table 4).

Where two headings read alike, the source gives them in different places. Positions of bridges follow the written chain, without caps; N, C: chain ends. Non-standard residues stand in square brackets, D forms with d. Residues, ends and D or L forms follow the SMILES beside them. 2Nal = N[C@@H](Cc1ccc2ccccc2c1)C(=O)O; Nle = CCCC[C@H](N)C(=O)O

Sequence of human TSP1 (P07996 19-1170 limits assumed): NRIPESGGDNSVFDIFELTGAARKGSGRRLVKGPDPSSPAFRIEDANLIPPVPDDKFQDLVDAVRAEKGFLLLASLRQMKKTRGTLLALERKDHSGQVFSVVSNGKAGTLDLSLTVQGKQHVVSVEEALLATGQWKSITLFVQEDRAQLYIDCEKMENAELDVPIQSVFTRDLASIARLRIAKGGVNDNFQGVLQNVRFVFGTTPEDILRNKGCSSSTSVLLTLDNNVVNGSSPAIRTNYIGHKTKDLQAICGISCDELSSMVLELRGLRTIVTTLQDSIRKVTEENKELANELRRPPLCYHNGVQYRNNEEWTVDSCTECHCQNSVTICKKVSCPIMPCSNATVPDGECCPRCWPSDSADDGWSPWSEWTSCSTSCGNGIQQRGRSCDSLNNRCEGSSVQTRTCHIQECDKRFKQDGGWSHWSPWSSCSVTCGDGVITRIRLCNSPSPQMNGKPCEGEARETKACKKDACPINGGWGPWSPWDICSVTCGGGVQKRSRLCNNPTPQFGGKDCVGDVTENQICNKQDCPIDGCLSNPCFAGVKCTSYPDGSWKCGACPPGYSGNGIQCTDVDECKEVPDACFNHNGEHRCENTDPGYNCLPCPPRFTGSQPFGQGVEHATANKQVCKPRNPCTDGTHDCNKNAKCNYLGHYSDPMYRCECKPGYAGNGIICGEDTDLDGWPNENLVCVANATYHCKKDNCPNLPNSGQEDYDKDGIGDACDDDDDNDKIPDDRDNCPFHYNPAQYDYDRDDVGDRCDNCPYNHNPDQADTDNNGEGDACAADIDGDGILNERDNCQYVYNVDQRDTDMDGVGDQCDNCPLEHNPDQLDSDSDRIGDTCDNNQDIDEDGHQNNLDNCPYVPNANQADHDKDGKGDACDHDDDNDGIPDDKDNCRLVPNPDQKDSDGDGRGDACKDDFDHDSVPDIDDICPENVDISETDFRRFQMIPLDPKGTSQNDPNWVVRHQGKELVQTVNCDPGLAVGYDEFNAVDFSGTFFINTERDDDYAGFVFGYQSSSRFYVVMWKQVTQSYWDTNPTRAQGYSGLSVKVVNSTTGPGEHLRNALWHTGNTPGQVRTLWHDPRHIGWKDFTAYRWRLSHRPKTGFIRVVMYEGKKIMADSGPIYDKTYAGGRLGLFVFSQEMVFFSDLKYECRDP

With `CC[C@H](C)[C@@H]1NC(=O)[C@H](Cc2ccc3ccccc3c2)NC(=O)CSC[C@@H](C(N)=O)NC(=O)[C@H](C(C)C)NC(=O)[C@H](Cc2c[nH]c3ccccc23)NC(=O)[C@H](CCCCN)NC(=O)[C@H](C(C)C)NC(=O)[C@H](Cc2ccc3ccccc3c2)NC(=O)[C@H](CC(N)=O)NC(=O)[C@H](CCCNC(=N)N)NC(=O)CNC(=O)[C@H](CO)NC1=O` [Compound 28] ({CH2CO}-[2Nal]ISGRN[2Nal]VKWVC-NH2; thioether N-12), in experiment [1], the “% change (vs. vehicle)” value came to 1.8% and the “%, ischemia/nonischemia” value came to 40.79%.

On to `CC[C@H](C)[C@@H]1NC(=O)[C@H](Cc2ccc3ccccc3c2)NC(=O)CSC[C@@H](C(N)=O)NC(=O)[C@H](C(C)C)NC(=O)[C@H](Cc2c[nH]c3ccccc23)NC(=O)[C@H](CCCCN)NC(=O)[C@H](C(C)C)NC(=O)[C@H](Cc2c[nH]c3ccccc23)NC(=O)[C@H](CC(=O)O)NC(=O)[C@H](CCCNC(=N)N)NC(=O)CNC(=O)[C@H](CO)NC1=O` [Compound 40] ({CH2CO}-[2Nal]ISGRDWVKWVC-NH2; thioether N-12), for which, in experiment [1], the “% change (vs. vehicle)” value is listed as 6.4% and the “%, ischemia/nonischemia” value came to 46.53%. For the same compound, the IC50 in experiment [2] (HUVEC adhesion to human platelet thrombospondin-coated plate, 2.5 hours, CellTiter-Glo, read-out: Cell adhesion IC50) is 16.1 nM.

For `CC[C@H](C)[C@@H]1NC(=O)[C@H](Cc2ccc3ccccc3c2)NC(=O)CSC[C@@H](C(N)=O)NC(=O)[C@H](C(C)C)NC(=O)[C@H](Cc2c[nH]c3ccccc23)NC(=O)[C@H](Cc2c[nH]cn2)NC(=O)[C@H](C(C)C)NC(=O)[C@H](Cc2c[nH]c3ccccc23)NC(=O)[C@H](CC(N)=O)NC(=O)[C@H](CCCNC(=N)N)NC(=O)CNC(=O)[C@H](CO)NC1=O` [Compound 41] ({CH2CO}-[2Nal]ISGRNWVHWVC-NH2; thioether N-12), in experiment [1], the “% change (vs. vehicle)” value was determined as 32.7% and the “%, ischemia/nonischemia” value was found to be 58.05%.

Regarding `CCCC[C@@H]1NC(=O)[C@H](Cc2c[nH]c3ccccc23)NC(=O)[C@H](CC(=O)O)NC(=O)[C@H](CCCNC(=N)N)NC(=O)CNC(=O)[C@H](CO)NC(=O)[C@H]([C@@H](C)CC)NC(=O)[C@H](Cc2ccc3ccccc3c2)NC(=O)[C@H]([C@@H](C)O)NC(=O)CSC[C@@H](C(N)=O)NC(=O)[C@H](C(C)C)NC(=O)[C@H](Cc2c[nH]c3ccccc23)NC(=O)[C@H](CCCCN)NC1=O` [Compound 85] ({CH2CO}-T[2Nal]ISGRDW[Nle]KWVC-NH2; thioether N-13), in experiment [2] (setting [3]), the IC50 was 15.5 nM.

Regarding `CCCC[C@@H]1NC(=O)[C@H](Cc2c[nH]c3ccccc23)NC(=O)[C@H](CC(=O)O)NC(=O)[C@H](CCCNC(=N)N)NC(=O)CNC(=O)[C@H](CO)NC(=O)[C@H]([C@@H](C)CC)NC(=O)[C@H](Cc2ccc3ccccc3c2)NC(=O)[C@H](CCC(N)=O)NC(=O)CSC[C@@H](C(N)=O)NC(=O)[C@H](C(C)C)NC(=O)[C@H](Cc2c[nH]c3ccccc23)NC(=O)[C@H](CCCCN)NC1=O` [Compound 86] ({CH2CO}-Q[2Nal]ISGRDW[Nle]KWVC-NH2; thioether N-13), the IC50 in experiment [2] (setting [3]) was 14.2 nM.

`CCCC[C@@H]1NC(=O)[C@H](Cc2c[nH]c3ccccc23)NC(=O)[C@H](CC(=O)O)NC(=O)[C@H](CCCNC(=N)N)NC(=O)CNC(=O)[C@H](CO)NC(=O)[C@H]([C@@H](C)CC)NC(=O)[C@H](Cc2ccc3ccccc3c2)NC(=O)[C@H](CCCCN)NC(=O)CSC[C@@H](C(N)=O)NC(=O)[C@H](C(C)C)NC(=O)[C@H](Cc2c[nH]c3ccccc23)NC(=O)[C@H](CCCCN)NC1=O` [Compound 90] ({CH2CO}-K[2Nal]ISGRDW[Nle]KWVC-NH2; thioether N-13): in experiment [2] (setting [3]), the IC50 is 17.2 nM.

In the case of `CCCC[C@@H]1NC(=O)[C@H](Cc2c[nH]c3ccccc23)NC(=O)[C@H](CC(=O)O)NC(=O)[C@H](CCCNC(=N)N)NC(=O)CNC(=O)[C@H](CO)NC(=O)[C@H]([C@@H](C)CC)NC(=O)[C@H](Cc2ccc3ccccc3c2)NC(=O)[C@H](Cc2c[nH]cn2)NC(=O)CSC[C@@H](C(N)=O)NC(=O)[C@H](C(C)C)NC(=O)[C@H](Cc2c[nH]c3ccccc23)NC(=O)[C@H](CCCCN)NC1=O` [Compound 91] ({CH2CO}-H[2Nal]ISGRDW[Nle]KWVC-NH2; thioether N-13), the IC50 in experiment [2] (setting [3]) came to 17.1 nM.

Consider `CCCC[C@@H]1NC(=O)[C@H](Cc2c[nH]c3ccccc23)NC(=O)[C@H](CC(=O)O)NC(=O)[C@H](CCCCN)NC(=O)CNC(=O)[C@H](CO)NC(=O)[C@H]([C@@H](C)CC)NC(=O)[C@H](Cc2ccc3ccccc3c2)NC(=O)[C@H](CO)NC(=O)CSC[C@@H](C(N)=O)NC(=O)[C@H](C(C)C)NC(=O)[C@H](Cc2c[nH]c3ccccc23)NC(=O)[C@H](CCCNC(=N)N)NC1=O` [Compound 92] ({CH2CO}-S[2Nal]ISGKDW[Nle]RWVC-NH2; thioether N-13), for which the IC50 in experiment [2] (setting [3]) is 15.5 nM.

For the compound `CC(C)[C@@H]1NC(=O)[C@H](Cc2c[nH]c3ccccc23)NC(=O)[C@H](C(C)C)NC(=O)[C@H](C(C)C)NC(=O)[C@H](Cc2c[nH]c3ccccc23)NC(=O)[C@H](CC(=O)O)NC(=O)[C@H](CCCCN)NC(=O)CNC(=O)[C@H](CO)NC(=O)[C@H](CCCNC(=N)N)NC(=O)[C@H](Cc2ccc3ccccc3c2)NC(=O)CSC[C@@H](C(N)=O)NC1=O` [Compound 99] ({CH2CO}-[2Nal]RSGKDWVVWVC-NH2; thioether N-12), the IC50 in experiment [2] (setting [3]) was found to be 14.2 nM.

Regarding `CCCC[C@@H]1NC(=O)[C@H](Cc2c[nH]c3ccccc23)NC(=O)[C@H](CC(N)=O)NC(=O)[C@H](Cc2c[nH]cn2)NC(=O)CNC(=O)[C@H](CO)NC(=O)[C@H](CCCNC(=N)N)NC(=O)[C@H](Cc2ccc3ccccc3c2)NC(=O)CSC[C@@H](C(N)=O)NC(=O)[C@H](C(C)C)NC(=O)[C@H](Cc2c[nH]c3ccccc23)NC(=O)[C@H](C(C)C)NC1=O` [Compound 100] ({CH2CO}-[2Nal]RSGHNW[Nle]VWVC-NH2; thioether N-12), the IC50 in experiment [2] (setting [3]) was 19.5 nM.

With `CCCC[C@@H]1NC(=O)[C@H](Cc2c[nH]c3ccccc23)NC(=O)[C@H](CC(=O)O)NC(=O)[C@H](Cc2c[nH]cn2)NC(=O)CNC(=O)[C@H](CO)NC(=O)[C@H](CCCNC(=N)N)NC(=O)[C@H](Cc2ccc3ccccc3c2)NC(=O)CSC[C@@H](C(N)=O)NC(=O)[C@H](C(C)C)NC(=O)[C@H](Cc2c[nH]c3ccccc23)NC(=O)[C@H](C(C)C)NC1=O` [Compound 101] ({CH2CO}-[2Nal]RSGHDW[Nle]VWVC-NH2; thioether N-12), in experiment [2] (setting [3]), the IC50 was 19.6 nM.
